In US20060058361A1, “Therapeutic diphenyl ether ligands” (Pfizer Inc, priority 2004, published 2006):

melting point [°C]	Compound
220 to 222	CNCc1cc(C)c([S+](C)[O-])cc1Oc1ccc(Cl)c(C)c1C (centres unmarked) [Example 19, [2-(4-Chloro-2,3-dimethylphenoxy)-4-methanesulfinyl-5-methylbenzyl]methylamine]
178 to 180	CNC(C)c1cc(F)c(Cl)cc1Oc1ccc(Cl)cc1F (centres unmarked) [Example 41, {1-[4-Chloro-2-(4-chloro-2-fluorophenoxy)-5-fluorophenyl]ethyl}-methylamine]
212 to 214	CNCc1cc(C)c(Cl)cc1Oc1ccc(Cl)cc1F [Example 43, [4-Chloro-2-(4-chloro-2-fluorophenoxy)-5-methylbenzyl]methylamine]
134 to 136	CNCc1cc(C)c(C)cc1Oc1ccc(Cl)cc1F [Example 45, [2-(4-Chloro-2-fluorophenoxy)-4,5-dimethylbenzyl]methylamine]
186 to 188	CNCc1ccc(OC)cc1Oc1ccc(Cl)cc1F [Example 46, [2-(4-Chloro-2-fluorophenoxy)-4-methoxy-benzyl]methylamine]
198 to 220	CNCc1ccc(C)cc1Oc1ccc(Cl)cc1F [Example 47, [2-(4-Chloro-2-fluorophenoxy)-4-methylbenzyl]methylamine]
204 to 206	CNCc1ccc(Br)cc1Oc1ccc(Cl)cc1F [Example 50, [4-Bromo-2-(4-chloro-2-fluorophenoxy)benzyl]methylamine]
184 to 186	CNCc1cc(F)c(S(C)(=O)=O)cc1Oc1ccc(Cl)cc1F [Example 52, [2-(4-Chloro-2-fluorophenoxy)-5-fluoro-4-methanesulfonylbenzyl]methylamine]
204 to 206	CNCc1ccc(Cl)cc1Oc1ccc(F)c2c1CCC2 [Example 57, [4-Chloro-2-(7-fluoroindan-4-yloxy)benzyl]methylamine]
88 to 90	CNCc1ccc(S(C)(=O)=O)cc1Oc1ccc2c(c1)CCC2 [Example 58, [2-(Indan-5-yloxy)-4-methanesulfonylbenzyl]methylamine]
158 to 160	CCSc1ccc(CNC)c(Oc2ccc(Cl)cc2)c1 [Example 60, [2-(4-Chlorophenoxy)-4-ethylsulfanylbenzyl]methylamine]
